ChEMBL document CHEMBL1135265, “Squaric acid derivatives as VLA-4 integrin antagonists” (Bioorg Med Chem Lett, 2002)

How the values were obtained:
Integrin alpha-4/beta-1 [1] = target: T1, Integrin alpha-4/beta-1 (Homo sapiens, UniProt P05556+P13612); test: Inhibition of binding of Very late antigen 4/vascular cell adhesion molecule 1 in a protein-based ligand binding assay; assay type: protein-complex assay
[2] = Rate constant (k) of clearance from isolated perfused rat liver (IPRL); assay type: ADME
Integrin alpha-4/beta-1 [3] = target: T1, Integrin alpha-4/beta-1; test: Inhibition of binding of Very late antigen 4/vascular cell adhesion molecule 1 in a cell based ligand binding assay (Jurkat cells)
Integrin alpha-4/beta-1 [4] = target: T1, Integrin alpha-4/beta-1; test: Inhibition of Jurkat cell VLA-4 adhesion to VCAM-1; assay type: cell-based
Integrin alpha-4/beta-1 [5] = target: T1, Integrin alpha-4/beta-1; test: Inhibition of very late antigen-4 (VLA-4)/vascular cell adhesion molecule-1(VCAM -1) interaction; assay type: protein-complex assay

T1 sequence (P05556 whole entry, the tested form may be a part): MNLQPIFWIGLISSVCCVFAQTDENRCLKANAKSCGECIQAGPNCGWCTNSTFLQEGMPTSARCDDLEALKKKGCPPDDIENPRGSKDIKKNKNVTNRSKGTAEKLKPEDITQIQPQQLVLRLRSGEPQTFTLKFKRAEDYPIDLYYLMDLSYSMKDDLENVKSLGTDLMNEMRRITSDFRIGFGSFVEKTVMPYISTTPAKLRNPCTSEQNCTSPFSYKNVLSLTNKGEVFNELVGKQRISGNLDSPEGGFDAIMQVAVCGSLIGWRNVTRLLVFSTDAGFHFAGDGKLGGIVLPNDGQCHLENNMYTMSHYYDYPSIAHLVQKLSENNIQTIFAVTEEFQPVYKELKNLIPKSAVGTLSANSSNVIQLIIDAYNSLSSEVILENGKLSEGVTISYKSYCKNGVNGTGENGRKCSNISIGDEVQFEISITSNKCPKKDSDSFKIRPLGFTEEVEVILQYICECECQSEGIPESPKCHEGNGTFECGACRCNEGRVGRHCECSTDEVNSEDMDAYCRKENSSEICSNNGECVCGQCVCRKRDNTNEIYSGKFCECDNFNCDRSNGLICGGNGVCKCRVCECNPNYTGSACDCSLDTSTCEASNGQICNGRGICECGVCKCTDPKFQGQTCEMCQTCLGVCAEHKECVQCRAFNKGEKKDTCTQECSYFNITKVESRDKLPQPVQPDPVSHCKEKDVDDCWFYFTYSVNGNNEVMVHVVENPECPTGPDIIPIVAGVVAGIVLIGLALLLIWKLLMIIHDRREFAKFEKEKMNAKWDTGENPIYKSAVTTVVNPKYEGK
T1 sequence (P13612 whole entry, the tested form may be a part): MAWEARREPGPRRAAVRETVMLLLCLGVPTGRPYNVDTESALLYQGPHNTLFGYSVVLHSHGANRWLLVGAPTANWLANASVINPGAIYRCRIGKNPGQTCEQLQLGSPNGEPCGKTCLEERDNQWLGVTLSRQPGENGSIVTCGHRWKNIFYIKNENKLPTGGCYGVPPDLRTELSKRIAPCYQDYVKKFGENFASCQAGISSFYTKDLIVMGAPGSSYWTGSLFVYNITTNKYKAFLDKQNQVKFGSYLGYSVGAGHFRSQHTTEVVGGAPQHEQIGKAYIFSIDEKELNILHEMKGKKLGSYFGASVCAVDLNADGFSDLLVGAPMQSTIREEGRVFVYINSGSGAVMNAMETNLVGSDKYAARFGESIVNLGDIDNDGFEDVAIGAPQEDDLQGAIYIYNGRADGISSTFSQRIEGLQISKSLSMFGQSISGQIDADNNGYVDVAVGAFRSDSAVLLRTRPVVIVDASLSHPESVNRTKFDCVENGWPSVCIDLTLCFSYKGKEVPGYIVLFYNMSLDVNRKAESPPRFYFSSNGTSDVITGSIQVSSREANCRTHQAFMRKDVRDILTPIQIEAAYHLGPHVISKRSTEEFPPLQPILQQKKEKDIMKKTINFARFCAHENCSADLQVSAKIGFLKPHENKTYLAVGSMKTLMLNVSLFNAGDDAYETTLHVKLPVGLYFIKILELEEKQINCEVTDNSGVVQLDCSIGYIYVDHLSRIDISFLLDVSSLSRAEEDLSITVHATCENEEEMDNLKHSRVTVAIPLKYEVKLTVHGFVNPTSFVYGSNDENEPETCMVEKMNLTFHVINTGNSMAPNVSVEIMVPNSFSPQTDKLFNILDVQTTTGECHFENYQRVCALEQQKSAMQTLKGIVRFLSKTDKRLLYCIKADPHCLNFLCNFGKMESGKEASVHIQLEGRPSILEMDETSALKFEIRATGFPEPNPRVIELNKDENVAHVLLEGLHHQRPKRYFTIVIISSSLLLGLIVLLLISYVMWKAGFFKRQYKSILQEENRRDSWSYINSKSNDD

IC50 (Integrin alpha-4/beta-1 [1]) [nM]	k el [2] [s⁻¹]	IC50 (Integrin alpha-4/beta-1 [3]) [nM]	IC50 (Integrin alpha-4/beta-1 [4]) [nM]	IC50 (Integrin alpha-4/beta-1 [5]) [nM]	Structure (SMILES)
3.7	0.00117	320	–	–	O=C(Nc1ccc(C[C@H](/N=c2\c(O)c(O)\c2=N/Cc2ccccc2)C(=O)O)cc1)c1c(Cl)cncc1Cl
2	0.00183	5.7	–	–	CCCCN(CCCC)c1c(N[C@@H](Cc2ccc(NC(=O)c3c(Cl)cncc3Cl)cc2)C(=O)O)c(=O)c1=O
0.9	0.00025	990	–	–	C/N=c1\c(O)c(O)\c1=N/[C@@H](Cc1ccc(NC(=O)c2c(Cl)cncc2Cl)cc1)C(=O)O
1.5	2.78e-05	120	–	–	CCC/N=c1\c(O)c(O)\c1=N/[C@@H](Cc1ccc(NC(=O)c2c(Cl)cncc2Cl)cc1)C(=O)O
25	0.00108	12400	–	–	CCN(CC)c1c(N[C@@H](Cc2ccc(OCc3c(Cl)cccc3Cl)cc2)C(=O)O)c(=O)c1=O
0.5	0.00128	590	–	–	CN(C)c1c(N[C@@H](Cc2ccc(NC(=O)c3c(Cl)cncc3Cl)cc2)C(=O)O)c(=O)c1=O
0.5	0.00103	60	–	–	CCN1CCN(c2c(N[C@@H](Cc3ccc(NC(=O)c4c(Cl)cncc4Cl)cc3)C(=O)O)c(=O)c2=O)CC1
0.3	0.00158	3.1	–	–	O=C(Nc1ccc(C[C@H](/N=c2/c(N3CCSCC3)c(O)c2=O)C(=O)O)cc1)c1c(Cl)cncc1Cl
3.5	0.000972	690	–	–	CC(C)(C)/N=c1\c(O)c(O)\c1=N/[C@@H](Cc1ccc(NC(=O)c2c(Cl)cncc2Cl)cc1)C(=O)O
2.1	0.000194	710	–	–	CCC/N=c1\c(O)c(O)\c1=N/[C@@H](Cc1ccc(-c2c(OC)cccc2OC)cc1)C(=O)O
–	0.000389	90	–	–	O=C(Nc1ccc(C[C@H](/N=c2\c(O)c(O)\c2=N/CCC(F)(F)F)C(=O)O)cc1)c1c(Cl)cncc1Cl
1	0.00025	225	–	–	CCCCC/N=c1\c(O)c(O)\c1=N/[C@@H](Cc1ccc(NC(=O)c2c(Cl)cncc2Cl)cc1)C(=O)O
–	–	–	18300	67	CCC/N=c1\c(O)c(O)\c1=N/[C@@H](Cc1ccc(OCc2c(Cl)cccc2Cl)cc1)C(=O)O
1	0.000722	95	–	–	CC(C)/N=c1\c(O)c(O)\c1=N/[C@@H](Cc1ccc(NC(=O)c2c(Cl)cncc2Cl)cc1)C(=O)O
50	0.000306	845	–	–	O=C(Nc1ccc(C[C@H](/N=c2\c(O)c(O)\c2=N/c2ccccc2)C(=O)O)cc1)c1c(Cl)cncc1Cl
0.5	0.000361	85	–	–	CC(C)C/N=c1\c(O)c(O)\c1=N/[C@@H](Cc1ccc(NC(=O)c2c(Cl)cncc2Cl)cc1)C(=O)O
6.7	–	10800	–	–	CCC/N=c1\c(O)c(O)\c1=N/[C@@H](Cc1ccc(-c2ccccc2OC)cc1)C(=O)O
9	0.000139	290	–	–	O=C(Nc1ccc(C[C@H](/N=c2\c(O)c(O)\c2=N/C2CCCC2)C(=O)O)cc1)c1c(Cl)cncc1Cl
6.9	0.000167	8200	–	–	CCC/N=c1\c(O)c(O)\c1=N/[C@@H](Cc1ccc(Oc2ncccn2)cc1)C(=O)O

IC50 (Integrin alpha-4/beta-1 [1]) [nM]	k el [2] [s⁻¹]	IC50 (Integrin alpha-4/beta-1 [3]) [nM]	IC50 (Integrin alpha-4/beta-1 [4]) [nM]	IC50 (Integrin alpha-4/beta-1 [5]) [nM]	Structure (SMILES)
1.2	0.0005	75	–	–	COCC/N=c1\c(O)c(O)\c1=N/[C@@H](Cc1ccc(NC(=O)c2c(Cl)cncc2Cl)cc1)C(=O)O
1.5	0.000444	250	–	–	O=C(Nc1ccc(C[C@H](/N=c2\c(O)c(O)\c2=N/C2CC2)C(=O)O)cc1)c1c(Cl)cncc1Cl
0.4	0.000361	130	–	–	CCCC/N=c1\c(O)c(O)\c1=N/[C@@H](Cc1ccc(NC(=O)c2c(Cl)cncc2Cl)cc1)C(=O)O
1	0.000306	370	–	–	O=C(Nc1ccc(C[C@H](/N=c2\c(O)c(O)\c2=N/CCCC(F)(F)F)C(=O)O)cc1)c1c(Cl)cncc1Cl
0.5	0.000861	160	–	–	CCC(C)/N=c1\c(O)c(O)\c1=N/[C@@H](Cc1ccc(NC(=O)c2c(Cl)cncc2Cl)cc1)C(=O)O (stereo partly drawn)
0.6	0.00108	180	–	–	CCN(CC)c1c(N[C@@H](Cc2ccc(-c3c(OC)cccc3OC)cc2)C(=O)O)c(=O)c1=O
0.4	0.00161	3.5	–	–	CCN(CC)c1c(N[C@@H](Cc2ccc(NC(=O)c3c(Cl)cncc3Cl)cc2)C(=O)O)c(=O)c1=O
0.6	0.000556	425	–	–	CC/N=c1\c(O)c(O)\c1=N/[C@@H](Cc1ccc(NC(=O)c2c(Cl)cncc2Cl)cc1)C(=O)O
1.2	0.000611	1160	–	–	CCN(CC)c1c(N[C@@H](Cc2ccc(-c3ccccc3OC)cc2)C(=O)O)c(=O)c1=O
0.4	0.00131	8.4	–	–	O=C(Nc1ccc(C[C@H](/N=c2/c(N3CCCCC3)c(O)c2=O)C(=O)O)cc1)c1c(Cl)cncc1Cl
0.6	0.000667	50	–	–	CCCC(C)/N=c1\c(O)c(O)\c1=N/[C@@H](Cc1ccc(NC(=O)c2c(Cl)cncc2Cl)cc1)C(=O)O (stereo partly drawn)
0.2	0.00136	100	–	–	CCN(C)c1c(N[C@@H](Cc2ccc(NC(=O)c3c(Cl)cncc3Cl)cc2)C(=O)O)c(=O)c1=O
2.6	0.000139	155	–	–	O=C(Nc1ccc(C[C@H](/N=c2\c(O)c(O)\c2=N/C2CCC2)C(=O)O)cc1)c1c(Cl)cncc1Cl
0.5	0.00139	11	–	–	O=C(Nc1ccc(C[C@H](/N=c2/c(N3CCOCC3)c(O)c2=O)C(=O)O)cc1)c1c(Cl)cncc1Cl
0.2	0.00125	13	–	–	CCCN(C)c1c(N[C@@H](Cc2ccc(NC(=O)c3c(Cl)cncc3Cl)cc2)C(=O)O)c(=O)c1=O
0.4	0.00125	40	–	–	O=C(Nc1ccc(C[C@H](/N=c2/c(N3CCNCC3)c(O)c2=O)C(=O)O)cc1)c1c(Cl)cncc1Cl
1.5	0.00075	2300	–	–	CCN(CC)c1c(N[C@@H](Cc2ccc(Oc3ncccn3)cc2)C(=O)O)c(=O)c1=O
1	0.000111	120	–	–	C=CC/N=c1\c(O)c(O)\c1=N/[C@@H](Cc1ccc(NC(=O)c2c(Cl)cncc2Cl)cc1)C(=O)O
